# Test results reported in ChEMBL document CHEMBL3351993, “Design, synthesis and docking study of 5-(substituted benzylidene)thiazolidine-2,4-dione derivatives as inhibitors of protein tyrosine phosphatase 1B” (Bioorg Med Chem Lett, 2014).
# Target: T1, Tyrosine-protein phosphatase non-receptor type 1 (Homo sapiens, UniProt P18031)
# T1 sequence (P18031 whole entry): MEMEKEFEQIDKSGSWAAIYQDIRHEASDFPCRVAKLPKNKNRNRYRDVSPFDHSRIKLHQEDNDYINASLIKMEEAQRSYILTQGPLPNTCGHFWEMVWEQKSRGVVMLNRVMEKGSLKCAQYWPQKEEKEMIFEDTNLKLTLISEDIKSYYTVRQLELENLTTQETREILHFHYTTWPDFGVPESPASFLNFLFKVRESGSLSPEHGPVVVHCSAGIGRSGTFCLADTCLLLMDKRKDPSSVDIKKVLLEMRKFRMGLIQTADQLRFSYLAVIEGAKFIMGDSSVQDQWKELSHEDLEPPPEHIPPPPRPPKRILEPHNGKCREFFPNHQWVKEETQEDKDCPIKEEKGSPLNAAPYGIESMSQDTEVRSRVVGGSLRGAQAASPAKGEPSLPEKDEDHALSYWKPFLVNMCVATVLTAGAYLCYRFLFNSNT
# Assay: Inhibition of human recombinant PTP1B using pNPP substrate at 37 degC measured after 30 mins
row,SMILES,IC50
1,COc1cc(O)ccc1/C=C1\SC(=O)NC1=O,29.8 µM
2,COc1cc(O)c(Br)cc1/C=C1\SC(=O)NC1=O,11.3 µM
3,COc1cc(OC)c(/C=C2\SC(=O)NC2=O)cc1Br,14.2 µM
4,C=CCOc1cc(OC)c(/C=C2\SC(=O)NC2=O)cc1Br,8.1 µM
5,COc1cc(OCC=C(C)C)c(Br)cc1/C=C1\SC(=O)NC1=O,5.3 µM
6,CCCCOc1cc(OC)c(/C=C2\SC(=O)NC2=O)cc1Br,4.9 µM
7,COc1cc(OCc2ccccc2)c(Br)cc1/C=C1\SC(=O)NC1=O,7.6 µM
8,COc1cc(OC)c(/C=C2\SC(=O)N(C)C2=O)cc1Br,22.3 µM
9,COc1cc(OCc2ccccc2)c(Br)cc1/C=C1\SC(=O)N(C)C1=O,8.1 µM
10,COc1cc(OCC=C(C)C)c(Br)cc1/C=C1\SC(=O)N(C)C1=O,8.2 µM
11,C=CCN1C(=O)S/C(=C\c2cc(Br)c(OCC=C(C)C)cc2OC)C1=O,17 µM
12,COc1cc(OCC=C(C)C)c(Br)cc1/C=C1\SC(=O)N(C(C)C)C1=O,4.6 µM
13,CCCCN1C(=O)S/C(=C\c2cc(Br)c(OCC=C(C)C)cc2OC)C1=O,12.3 µM
14,COc1cc(OCC=C(C)C)c(Br)cc1/C=C1\SC(=O)N(CC=C(C)C)C1=O,10 µM
15,COc1cc(OCC=C(C)C)c(Br)cc1/C=C1\SC(=O)N(Cc2ccccc2)C1=O,10.3 µM
16,CCCCOc1cc(OC)c(/C=C2\SC(=O)N(C)C2=O)cc1Br,12.1 µM
17,C=CCN1C(=O)S/C(=C\c2cc(Br)c(OCCCC)cc2OC)C1=O,7.9 µM

row,SMILES,IC50
1,CCCCOc1cc(OC)c(/C=C2\SC(=O)N(C(C)C)C2=O)cc1Br,9.7 µM
2,CCCCOc1cc(OC)c(/C=C2\SC(=O)N(CCCC)C2=O)cc1Br,> 30 µM
3,CCCCOc1cc(OC)c(/C=C2\SC(=O)N(Cc3ccccc3)C2=O)cc1Br,6.6 µM
4,C=CCc1cc(/C=C2\SC(=O)NC2=O)c(OC)cc1OC1CCCCO1 (centres undefined),12.2 µM
5,C=CCc1cc(/C=C2\SC(=O)N(C)C2=O)c(OC)cc1OC1CCCCO1 (centres undefined),> 30 µM
6,C=CCc1cc(/C=C2\SC(=O)N(C(C)C)C2=O)c(OC)cc1OC1CCCCO1 (centres undefined),> 30 µM
7,C=CCc1cc(/C=C2\SC(=O)N(CC=C)C2=O)c(OC)cc1OC1CCCCO1 (centres undefined),> 30 µM
8,C=CCc1cc(/C=C2\SC(=O)N(CC=C(C)C)C2=O)c(OC)cc1OC1CCCCO1 (centres undefined),22.7 µM
9,C=CCc1cc(/C=C2\SC(=O)N(CCCC)C2=O)c(OC)cc1OC1CCCCO1 (centres undefined),20.6 µM
10,C=CCc1cc(/C=C2\SC(=O)N(Cc3ccccc3)C2=O)c(OC)cc1OC1CCCCO1 (centres undefined),> 30 µM
11,C=CCc1cc(/C=C2\SC(=O)N(C)C2=O)c(OC)cc1O,> 30 µM
12,C=CCc1cc(/C=C2\SC(=O)N(C(C)C)C2=O)c(OC)cc1O,6.4 µM
13,C=CCc1cc(/C=C2\SC(=O)N(CC=C)C2=O)c(OC)cc1O,> 30 µM
14,C=CCc1cc(/C=C2\SC(=O)N(CC=C(C)C)C2=O)c(OC)cc1O,12 µM
15,C=CCc1cc(/C=C2\SC(=O)N(CCCC)C2=O)c(OC)cc1O,9.6 µM
16,C=CCc1cc(/C=C2\SC(=O)N(Cc3ccccc3)C2=O)c(OC)cc1O,7.2 µM
17,C=CCc1cc(/C=C2\SC(=O)NC2=O)c(OC)cc1O,29.3 µM
